{"source": "patent EP4818178A1", "about": "“PREPARATION AND USE OF PYRIMIDOTHIOPYRANONE KRAS MUTANT PROTEIN INHIBITOR” (Ya Therapeutics Inc, priority 2024, dated 2025)"}
{"target": "KRasG12D (Homo sapiens, UniProt P01116, G12D)", "test": "KRAS inhibitory activity test, TR-FRET (inhibition of binding of KRasG12D to GTP, SOS/GTP nucleotide exchange)", "type": "biochemical", "conditions": "read-out: IC50 values of the compounds for inhibiting KRAS enzymes, G12D", "description": "• 1. […] Reagent Preparation: • a. Storage Reagents:\nPrepare a 1L solution by mixing 20mL of 1000mM HEPES, 20mL of 500mM EDTA, 10mL of 5M sodium chloride, 0.1mL of 100% Tween 20, and 949.9mL of water. Sterilize by filtration and store at 4°C.\nPrepare a 1L solution by mixing 20mL of 1000mM HEPES, 10mL of 1000mM magnesium chloride, 30mL of 5M sodium chloride, 0.05mL of 100% Tween 20, and 939.95mL of water. Sterilize by filtration and store at 4°C. 3) KRAS/Bodipy GDP/Tb-SA Mixture: Mix 9.5 µL of 95 µM KRasG12D protein with 440.5 µL of KRAS nucleotide exchange buffer. Incubate at room temperature for 1 hour. Then, mix with 8.4 µL of 17.9 µM Tb-SA, 1.8 µL of 5 mM Bodipy GDP, and 9539.8 µL of KRAS experimental buffer to prepare […]. After mixing, incubate at room temperature for 6 hours and store at -80°C.\n• 1) KRAS Enzyme Solution: Mix 73.3 µL of KRAS/Bodipy GDP/Tb-SA mixture with 2126.7 µL of KRAS experimental buffer to prepare a 2200 µL solution. • 2) SOS/GTP Mixture\nc. Experimental Procedure: Mix 1.59 µL of 166 µM SOS protein with 198 µL of 100 mM... GTP and 0.41 µL KRAS buffer were prepared to a 2200 µL solution. The stock solution concentration of the control compound was 1 mM, and the stock solution concentration of the test compound was 10 mM. 9 µL of the control compound and the test compound were transferred to a 384-LDV plate. The compound on the LDV plate was 3-fold diluted 10-point using Bravo. 9 nL of the compound on the LDV plate was transferred to the experimental plate using ECHO. 3 µL of a 3 nM Kras/0.5 nM TB-SA/30 nM BodipyGDP mixture and 3 µL of Ras buffer were added to each well of the experimental plate using a Dragonfly autopilot. The plate was centrifuged at 1000 rpm for 1 minute. The plate was incubated at room temperature for 1 hour. 3 µL of 120 nM SOS/9 mM KRAS buffer was added to each well of the experimental plate using a Dragonfly autopilot. The […] was centrifuged at 1000 rpm for 1 minute; the plate was incubated at room temperature for 1 hour; the plate was read and the data were recorded using Envision; the data were analyzed using Excel and Xlfit to calculate the IC50of the test compound. \"++++\" indicates IC50≤ 10 nM; \"+++\" indicates 10 nM < IC50≤ 100 nM; \"++\" indicates 100 nM < IC50≤ 2000 nM; \"+\" indicates 2000 nM < IC50.", "units": {"IC50": "nM"}}
{"molecule": "Cc1cc(N)c(F)c([C@@H]2Cc3nc(OC[C@@]45CCCN4C[C@H](F)C5)nc(N4CCC[C@@](C)(O)C4)c3CS2(=O)=O)c1C(F)(F)F", "note": "[Compound 5A, (7S)-7-(3-amino-2-fluoro-5-methyl-6-(trifluoromethyl)phenyl)-2-(((2R,7AS)-2-fluorotetrahydro-1H-pyrrolazin-7a(5H)-yl)methoxy)-4-((R)-3-hydroxy-3-methylpiperidin-1-yl)-7,8-dihydro-5H-thiopyrano[4,3-d]pyrimidine-6,6-dioxide]", "IC50": "10 to 100"}
{"molecule": "Cc1cc(N)cc(C2Cc3nc(OC[C@@]45CCCN4CC(=C(F)F)C5)nc(N4CC5CCC(C4)N5)c3CS2(=O)=O)c1C(F)(F)F", "note": "(some centres unmarked) [Compound 40]", "IC50": "≤ 10"}
{"molecule": "Cc1cc(N)c(F)c([C@H]2Cc3nc(OC[C@@]45CCCN4C[C@H](F)C5)nc(N4CCC[C@@](C)(O)C4)c3CS2(=O)=O)c1C(F)(F)F", "note": "[Compound 5B, (7R)-7-(3-amino-2-fluoro-5-methyl-6-(trifluoromethyl)phenyl)-2-(((2R,7AS)-2-fluorotetrahydro-1H-pyrrolazin-7a(5H)-yl)methoxy)-4-((R)-3-hydroxy-3-methylpiperidin-1-yl)-7,8-dihydro-5H-thiopyrano[4,3-d]pyrimidine-6,6-dioxide]", "IC50": "≤ 10"}
{"molecule": "Cc1cc(N)cc([C@@H]2Cc3nc(OC[C@@]45CCCN4C/C(=C\\F)C5)nc(N4CC5CCC(C4)N5)c3CS2(=O)=O)c1C(F)(F)F", "note": "[Compound 39A]", "IC50": "≤ 10"}
{"molecule": "CC#Cc1cc(N)cc(C2Cc3nc(OC[C@@]45CCCN4C/C(=C\\F)C5)nc(N4CC5CCC(C4)N5)c3CS2(=O)=O)c1C(F)(F)F", "note": "(some centres unmarked) [Compound 32]", "IC50": "≤ 10"}
{"molecule": "CC#Cc1cc(N)cc(C2Cc3nc(OC[C@@]45CCCN4CC(=C(F)F)C5)nc(N4CC5CCC(C4)N5)c3CS2(=O)=O)c1C(F)(F)F", "note": "(some centres unmarked) [Compound 31]", "IC50": "≤ 10"}
{"molecule": "Cc1cc(O)c(F)c([C@H]2Cc3nc(OC[C@@]45CCCN4C[C@H](F)C5)nc(N4CCC[C@@](C)(O)C4)c3CS2(=O)=O)c1C(F)(F)F", "note": "[Compound 6B, (7R)-7-(2-fluoro-3-hydroxy-5-methyl-6-(trifluoromethyl)phenyl)-2-(((2R,7AS)-2-fluorotetrahydro-1H-pyrrolazin-7a(5H)-yl)methoxy)-4-((R)-3-hydroxy-3-methylpiperidin-1-yl)-7,8-dihydro-5H-thiopyrano[4,3-d]pyrimidine-6,6-dioxide]", "IC50": "10 to 100"}
{"molecule": "C=C1CN2CCC[C@@]2(COc2nc3c(c(N4CC5CCC(C4)N5)n2)CS(=O)(=O)[C@H](c2nc(N)cc(C)c2C(F)(F)F)C3)C1", "note": "[Compound 20A, (7S)-7-(6-amino-4-methyl-3-(trifluoromethyl)pyridin-2-yl)-2-(((S)-2-(methylene)tetra hydro-1H-pyrrolazin-7a(5H)-yl)methoxy)-4-(3,8-diazabicyclo[3.2.1]octane-3-yl)-7,8-dihydro-5H-thiopyrano[4,3-d]pyrimidine-6,6-dioxide]", "IC50": "≤ 10"}
{"molecule": "Cc1cc(N)cc([C@@H]2Cc3nc(OC[C@@]45CCCN4C[C@H](F)C5)nc(N4CC5CCC(C4)N5)c3CS2(=O)=O)c1C(F)(F)F", "note": "[Compound 37A]", "IC50": "≤ 10"}
{"molecule": "Cc1cc(N)nc([C@H]2Cc3nc(OC[C@@]45CCCN4C[C@H](F)C5)nc(N4CCC[C@@](C)(O)C4)c3CS2(=O)=O)c1C(F)(F)F", "note": "[Compound 8B, (7R)-7-(6-amino-4-methyl-3-(trifluoromethyl)pyridin-2-yl)-2-(((2R,7AS)-2-fluorotetrahydro-1H-pyrrolazin-7a(5H)-yl)methoxy)-4-((R)-3-hydroxy-3-methylpiperidin-1-yl) -7,8-dihydro-5H-thiopyrano[4,3-d]pyrimidine-6,6-dioxide]", "IC50": "10 to 100"}
{"molecule": "Cc1cc(N)nc([C@@H]2Cc3nc(OC[C@@]45CCCN4C[C@H](F)C5)nc(N4CCC[C@@](C)(O)C4)c3CS2(=O)=O)c1C(F)(F)F", "note": "[Compound 7A, (7S)-7-(6-amino-4-methyl-3-(trifluoromethyl)pyridin-2-yl)-2-(((2R,7AS)-2-fluorotetrahydro-1H-pyrrolazin-7a(5H)-yl)methoxy)-4-((R)-3-hydroxy-3-methylpiperidin-1-yl) -7,8-dihydro-5H-thiopyrano[4,3-d]pyrimidine-6,6-dioxide]", "IC50": "≤ 10"}
{"molecule": "Cc1cc(N)c(F)c(C2Cc3nc(OC[C@@]45CCCN4CC(=CF)C5)nc(N4CC5CCC(C4)N5)c3CS2(=O)=O)c1C(F)(F)F", "note": "(stereo partly drawn) [Compound 10, 7-7-(3-amino-2-fluoro-5-methyl-6-(trifluoromethyl)phenyl)-4-(3,8-diazabicyclo[3.2.1]octane-3-yl)-2-(((S)-2-(fluoromethylene)tetrahydro-1H-pyrrolazin-7a(5H)-yl)methoxy) -7,8-dihydro-5H-thiopyrano[4,3-d]pyrimidine-6,6-dioxide]", "IC50": "≤ 10"}
{"molecule": "Cc1cc(N)c(F)c([C@@H]2Cc3nc(OC[C@@]45CCCN4C[C@H](F)C5)nc(N4C[C@H]5CC[C@@H](C4)N5)c3CS2(=O)=O)c1C(F)(F)F", "note": "[Compound 33A, (7S)-7-(3-amino-2-fluoro-5-methyl-6-(trifluoromethyl)phenyl)-4-((1R,5S)-3,8-diazabicyclo[3.2.1]octane-3-yl)-2-(((2R,7AS)-2-fluorotetrahydro-1H-pyrrolazin-7a(5H)-yl)methoxy)-7,8-dihydro-5H-thiopyrano[4,3-d]pyrimidine 6,6-Dioxide]", "IC50": "≤ 10"}
{"molecule": "7-(3-amino-2-fluoro-5-methyl-6-(trifluoromethyl)phenyl)-4-(1R,5S)-3,8-diazabicyclo [3.2.1]octane-3-yl)-2-(((2R,7AS)-2-fluorotetrahydro-1H-pyrrolazin-7a(5H)-yl)methox y)-7,8-dihydro-5H-thiopyrano[4,3-d]pyrimidine-6,6-dioxide [Compound 30]", "IC50": "≤ 10"}
{"molecule": "Cc1cc(N)nc(C2Cc3nc(OC[C@@]45CCCN4CC(=C(F)F)C5)nc(N4CC5CCC(C4)N5)c3CS2(=O)=O)c1C(F)(F)F", "note": "(stereo partly drawn) [Compound 18, 7-(6-amino-4-methyl-3-(trifluoromethyl)pyridin-2-yl)-2-(((S)-2-(difluoromethylene)tetrahydro-1H-pyrrolazin-7a(5H)-yl)methoxy)-4-(3,8-diazabicyclo[3.2.1]octane-3-yl)-7,8-dihydro-5H-thiopyrano[4,3-d]pyrimidine-6,6-dioxide]", "IC50": "≤ 10"}
{"molecule": "CC#Cc1cc(N)c(F)c(C2Cc3nc(OC[C@@]45CCCN4CC(=C(F)F)C5)nc(N4CC5CCC(C4)N5)c3CS2(=O)=O)c1C(F)(F)F", "note": "(stereo partly drawn) [Compound 23, 7-(3-amino-2-fluoro-5-(prop-1-yn-1-yl)-6-(trifluoromethyl)phenyl)-4-(3,8-diazabicyclo[3.2.1]octane-3-yl)-2-(((S)-2-(difluoromethylene)tetrahydro-1H-pyrrolazin-7a(5H)-y 1)methoxy)-7,8-dihydro-5H-thiopyrano[4,3-d]pyrimidine-6,6-dioxide]", "IC50": "≤ 10"}
{"molecule": "Cc1cc(N)c(F)c([C@@H]2Cc3nc(OC[C@@]45CCCN4C[C@H](F)C5)nc(N4C[C@H]5CC[C@@H](C4)N5)c3CS2(=O)=O)c1C(F)(F)F", "note": "[Compound 29A, (7S)-7-(3-amino-2-fluoro-5-methyl-6-(trifluoromethyl)phenyl)-4-((1R,5S)-3,8-diazabicyclo[3.2.1]octane-3-yl)-2-(((2R,7AS)-2-fluorotetrahydro-1H-pyrrolazin-7a(5H)-yl)methoxy)-7,8-dihydro-5H-thiopyrano[4,3-d]pyrimidine 6,6-Dioxide]", "IC50": "≤ 10"}
